{
  "source": "patent US9277697B2",
  "about": "“Compositions and methods for anti-transpiration in plants” (Innovation Hammer, LLC, priority 2004, dated 2016)",
  "key": {"weeds": {"tested_on": "weeds", "test": "Weed kill by tank-mixes of saccharides, herbicide and ammonium sulfate", "format": "in vivo", "details": "1 lb/acre glyphosate; additive 1:1 methyl glucosides to organic ammonium sulfates", "description": "The inherent benefit of the reduction of productivity observed by surface coatings was exploited by utilizing their weakening effects as additives to enhance weed kill of pesticides. In sets of replicated trials, weeds were given tank-mixes with saccharides, herbicides, and ammonium sulfate fertilizer. Perhaps the most widely used herbicide, N-phosphonomethylglycine (PO(OH)2CH2.2NHCH2COOH), is commonly referred to as glyphosate, and is most abundantly found formulated as a water-soluble mono-isopropylamine (IPA) salt or sodium salt, hereinafter referred to as glyphosate, meant to include salts, thereof. The preferred formulation of the present invention is a blend of 4 lbs./acre to 5 lbs./acre glyphosate; 10 lbs./acre to 100 lbs./acre of 60% to 100% methyl glucosides in a 1:1 to 3:1 blend with ammonium sulfate; and with optional surfactant. After foliar application, inhibitory methods yielded approximately 50% to 85% improved response of weeds to herbicide and additives over positive controls. […] An additional benefit is the reversal of the weakening effect of treatments to plants that have been genetically engineered for herbicide resistance. After treatment with a tank mix of herbicide and Series 1 components, a Series 2 formulation of Ca^2+-chelators may be sprayed over a Series 1 treatment once the herbicide has killed its targeted weeds. […]"}, "pectic cell": {"tested_on": "pectic cell", "test": "Penetration and integration of saccharides"}, "Cabbage": {"tested_on": "Cabbage", "test": "Growth promotion with iron-Mac formulations versus component controls", "format": "in vivo", "details": "12 ppm iron-Mac, 12 ppm Fe—Na2EDTA, 50 mM (NH4)2SO4", "protocol": "(§1) Dilute the mixture in an appropriate volume of water. Mix until the compounds are dissolved. Spray the resulting formulation on the plant foliage (e.g. New Guinea Impatiens) so that the foliage glistens. Allow a day for leaf uptake. The following results are of growth promotion using iron-Mac formulations of the invention versus conventionally cultured controls and with identical quantities of each of the components as separate controls."}, "Lantana": {"tested_on": "Lantana", "test": "Growth promotion with iron-Mac formulations versus component controls", "format": "in vivo", "details": "12 ppm iron-Mac, 12 ppm Fe—Na2EDTA, 50 mM (NH4)2SO4", "protocol": "as §1"}, "Rice": {"tested_on": "Rice", "test": "Growth promotion with iron-Mac formulations versus component controls", "format": "in vivo", "details": "12 ppm iron-Mac, 12 ppm Fe—Na2EDTA, 50 mM (NH4)2SO4", "protocol": "as §1"}, "Rice, Lantana, Cabbage": {"tested_on": "Rice, Lantana, Cabbage", "test": "Yield with iron-Mac formulations versus component controls, all plant types", "format": "in vivo", "details": "for all plant types; 12 ppm Fe—Na2EDTA, 50 mM (NH4)2SO4", "protocol": "as §1"}},
  "data": [
    {"molecule": "O=C(O)CNCP(=O)(O)O", "note": "[glyphosate, N-phosphonomethylglycine]", "values": [
      {"measurement": "lethal dose response", "setting": "weeds", "value": 100, "unit": "%"}
    ]},
    {"molecule": "CC(=O)OC[C@H]1OC(Oc2ccccc2)[C@H](OC(C)=O)[C@@H](OC(C)=O)[C@@H]1OC(C)=O", "note": "(some centres unmarked) [phenyltetraacetylglucoside]", "values": [
      {"measurement": "penetration and integration", "setting": "pectic cell", "value": "neither penetrate nor integrate"}
    ]},
    {"molecule": "CC(=O)OC[C@H]1OC(OC(C)=O)[C@H](OC(C)=O)[C@@H](OC(C)=O)[C@@H]1OC(C)=O", "note": "(some centres unmarked) [pentaace tylglucopyranose]", "values": [
      {"measurement": "penetration and integration", "setting": "pectic cell", "value": "neither penetrate nor integrate"}
    ]},
    {"molecule": "CCCCCCCCCCCCCCO[C@@H]1O[C@H](CO)[C@@H](O[C@@H]2O[C@@H](CO)[C@H](O)[C@@H](O)[C@@H]2O)[C@H](O)[C@H]1O", "note": "(stereo in doubt) [tetradecylmaltoside]", "values": [
      {"measurement": "penetration and integration", "setting": "pectic cell", "value": "neither penetrate nor integrate"}
    ]},
    {"molecule": "Fe—Na2EDTA", "values": [
      {"measurement": "Result (growth promotion)", "setting": "Cabbage", "value": "phytotoxic"},
      {"measurement": "Result (growth promotion)", "setting": "Lantana", "value": "phytotoxic"},
      {"measurement": "Result (growth promotion)", "setting": "Rice", "value": "phytotoxic"},
      {"measurement": "yield reduction", "setting": "Rice, Lantana, Cabbage", "value": 5, "unit": "% reduction"}
    ]},
    {"molecule": "CC(=O)OC[C@H]1OC(OC(C)=O)[C@@H](OC(C)=O)[C@@H](OC(C)=O)[C@@H]1OC(C)=O", "note": "(some centres unmarked) [pentaacetylmanno-pyranose]", "values": [
      {"measurement": "penetration and integration", "setting": "pectic cell", "value": "neither penetrate nor integrate"}
    ]},
    {"molecule": "N.N.O=S(=O)(O)O", "note": "[(NH4)2SO4]", "values": [
      {"measurement": "Result (growth promotion)", "setting": "Cabbage", "value": "retarded"},
      {"measurement": "Result (growth promotion)", "setting": "Lantana", "value": "retarded"},
      {"measurement": "Result (growth promotion)", "setting": "Rice", "value": "retarded"},
      {"measurement": "yield reduction", "setting": "Rice, Lantana, Cabbage", "value": 5, "unit": "% reduction"}
    ]},
    {"molecule": "CC(=O)OC[C@H]1OC(OC(C)=O)[C@H](OC(C)=O)[C@@H](OC(C)=O)[C@H]1OC(C)=O", "note": "(some centres unmarked) [pentaace tylgalactopyranose]", "values": [
      {"measurement": "penetration and integration", "setting": "pectic cell", "value": "neither penetrate nor integrate"}
    ]}
  ]
}
